In patent US8865182B2 (priority 2009, dated 2014):

System: HLA-A1 supertype (A*101, A*2601, A*2902, A*3002)
Assay type: binding, human

Point of comparison: “SSLENFRAY (Influenza Virus) [SEQ ID NO: 166]”, “# Alleles Bound” value 1. Against it:
- ASQGTKRSY (Influenza Virus) [SEQ ID NO: 110] — the same, 1
- GMIDGWYGY (Influenza Virus) [SEQ ID NO: 63] — higher, 2
- GMQIRGFVY (Influenza Virus) [SEQ ID NO: 207] — higher, 2
- GTEKLTITY [SEQ ID NO: 268] — the same, 1
- GTVKDRSPY (Influenza Virus) [SEQ ID NO: 86] — higher, 2
- HIASMRRNY (Influenza Virus) [SEQ ID NO: 168] — the same, 1
- ITQFESLKLY (Influenza Virus) [SEQ ID NO: 153] — the same, 1
- IVAITDWSGY (Influenza Virus) [SEQ ID NO: 88] — the same, 1
- KISPLMVAY (Influenza Virus) [SEQ ID NO: 266] — higher, 2
- KMARLGKGY (Influenza Virus) [SEQ ID NO: 209] — the same, 1
- KSCINRCFY (Influenza Virus) [SEQ ID NO: 89] — the same, 1
- KSCLPACVY [SEQ ID NO: 113] — higher, 2
- LTIGECPKY (Influenza Virus) [SEQ ID NO: 62] — higher, 3
- LVSDGGPNLY (Influenza Virus) [SEQ ID NO: 213] — higher, 3
- MLANIDLKY [SEQ ID NO: 210] — higher, 3
- MLASIDLKY [SEQ ID NO: 211] — higher, 4
- NMDRAVKLY (Influenza Virus) [SEQ ID NO: 68] — higher, 3
- QWSQEPTMLY (Influenza Virus) [SEQ ID NO: 269] — higher, 2
- RMFLAMITY (Influenza Virus) [SEQ ID NO: 208] — higher, 2
- RVSKMGVDEY (Influenza Virus) [SEQ ID NO: 267] — the same, 1
- STVHYPKVY (Influenza Virus) [SEQ ID NO: 265] — higher, 2
- TFEFTSFFY [SEQ ID NO: 212] — higher, 3
- TIASVPAPRY (Influenza Virus) [SEQ ID NO: 140] — higher, 2
- VSFDQNLDY (Influenza Virus) [SEQ ID NO: 87] — higher, 2
- VSHCRATEY (Influenza Virus) [SEQ ID NO: 169] — the same, 1
- VTRREVHIY [SEQ ID NO: 165] — the same, 1
- WSQDPTMLY (Influenza Virus) [SEQ ID NO: 270] — higher, 4
- YSHGTGTGY (Influenza Virus) [SEQ ID NO: 206] — higher, 4
- YVDGFEPNGY (Influenza Virus) [SEQ ID NO: 167] — higher, 2

System: HLA-A2 supertype (A*0201, A*0202, A*0203, A*0206, A*6802)
Assay type: binding, human

Point of comparison: “RMQFSSLTV (Influenza Virus) [SEQ ID NO: 274]”, “# Alleles Bound” value 4. Against it:
- LQDCKIAPL (Influenza Virus) [SEQ ID NO: 271] — the same, 4
- LQNSQVFSL (Influenza Virus) [SEQ ID NO: 115] — the same, 4
- MAWTVVNSI (Influenza Virus) [SEQ ID NO: 172] — higher, 5
- MQALQLLLEV [SEQ ID NO: 155] — higher, 5
- NMLSTVLGV [SEQ ID NO: 221] — the same, 4
- QIRGFVYFV (Influenza Virus) [SEQ ID NO: 217] — the same, 4
- QVDCFLWHV (Influenza Virus) [SEQ ID NO: 142] — higher, 5
- RLCNPLNPFV (Influenza Virus) [SEQ ID NO: 224] — the same, 4
- RLIDFLKDV [SEQ ID NO: 216] — the same, 4
- RMFLAMITYI (Influenza Virus) [SEQ ID NO: 219] — the same, 4
- RMGTVTTEV (Influenza Virus) [SEQ ID NO: 72] — the same, 4
- SIIGILHLI (Influenza Virus) [SEQ ID NO: 80] — higher, 5
- YINTALLNA (Influenza Virus) [SEQ ID NO: 175] — higher, 5

System: HLA-A24 supertype (A*2301, A*2402, A*2902, A*3002)
Assay type: binding, human

Point of comparison: FYIQMCTEL [SEQ ID NO: 128], “# Alleles Bound” value 2. Against it:
- CFMYSDFHF (Influenza Virus) [SEQ ID NO: 190] — higher, 3
- EWLKTRPIL (Influenza Virus) [SEQ ID NO: 75] — the same, 2
- EYIMKGVYI (Influenza Virus) [SEQ ID NO: 192] — the same, 2
- FFENKSETW (Influenza Virus) [SEQ ID NO: 193] — the same, 2
- FFLTQGALL (Influenza Virus) [SEQ ID NO: 98] — higher, 3
- FMQALQLLF (Influenza Virus) [SEQ ID NO: 159] — higher, 3
- FYRYGFVANF (Influenza Virus) [SEQ ID NO: 248] — the same, 2
- HMMIWHSNL (Influenza Virus) [SEQ ID NO: 129] — higher, 3
- HYPKVYKTYF (Influenza Virus) [SEQ ID NO: 296] — the same, 2
- IFLARSALI (Influenza Virus) [SEQ ID NO: 130] — the same, 2
- IYRRFKYGL (Influenza Virus) [SEQ ID NO: 85] — the same, 2
- KFAAICTHL (Influenza Virus) [SEQ ID NO: 189] — the same, 2
- KFEEIRWLI (Influenza Virus) [SEQ ID NO: 158] — the same, 2
- LWILDRLFF (Influenza Virus) [SEQ ID NO: 84] — higher, 3
- LYASPQLEGF (Influenza Virus) [SEQ ID NO: 194] — the same, 2

System: HLA-B44 supertype (B*1801, B*4001, B*4002, B*4403, B*4501)
Assay type: binding, human

Point of comparison: “IESVNNAVV (Influenza Virus) [SEQ ID NO: 264]”, “# Alleles Bound” value 6. Against it:
- AESRKLLLI [SEQ ID NO: 203] — lower, 4
- AESRKLLLIV (Influenza Virus) [SEQ ID NO: 204] — lower, 3
- CEKLEQSGL [SEQ ID NO: 262] — lower, 4
- DEALKMTIA (Influenza Virus) [SEQ ID NO: 148] — lower, 4
- EECSCYPDY (Influenza Virus) [SEQ ID NO: 107] — lower, 3
- EECSCYPRY (Influenza Virus) [SEQ ID NO: 108] — lower, 4
- EEVRHRLKI (Influenza Virus) [SEQ ID NO: 160] — lower, 5
- FEDLRVSSF [SEQ ID NO: 137] — lower, 5
- FEMIWDPNG (Influenza Virus) [SEQ ID NO: 109] — lower, 3
- FEQITFMQA (Influenza Virus) [SEQ ID NO: 161] — lower, 5
- FERATIMAA (Influenza Virus) [SEQ ID NO: 138] — lower, 4
- FERATIMAAF (Influenza Virus) [SEQ ID NO: 139] — lower, 5
- GEETIEERF (Influenza Virus) [SEQ ID NO: 198] — lower, 5
- GEISPLPSL [SEQ ID NO: 151] — the same, 6
- GERQNATEI [SEQ ID NO: 135] — lower, 4
- HENRMVLAST (Influenza Virus) [SEQ ID NO: 77] — lower, 4
- IEKIRPLLI (Influenza Virus) [SEQ ID NO: 263] — lower, 5
- KEDKRYGPAL (Influenza Virus) [SEQ ID NO: 309] — the same, 6
- LEEMSRDWLM (Influenza Virus) [SEQ ID NO: 149] — lower, 4
- LETLILLRAF (Influenza Virus) [SEQ ID NO: 150] — lower, 4
- LEVEQEIRT (Influenza Virus) [SEQ ID NO: 162] — lower, 4
- MEFSLTDPRL (Influenza Virus) [SEQ ID NO: 201] — the same, 6
- MEVASQARQM (Influenza Virus) [SEQ ID NO: 79] — lower, 5
- PELRSLSSWI (Influenza Virus) [SEQ ID NO: 199] — lower, 4
- QEIRTFSFQL [SEQ ID NO: 163] — lower, 4
- RELVRKTRFL (Influenza Virus) [SEQ ID NO: 307] — lower, 4
- RESRNPGNA (Influenza Virus) [SEQ ID NO: 136] — lower, 4
- SEFNKACELT (Influenza Virus) [SEQ ID NO: 200] — lower, 5
- SEQAAEAMEV [SEQ ID NO: 78] — the same, 6
- SETLQRFAW (Influenza Virus) [SEQ ID NO: 152] — lower, 3
- TEVETYVLSI [SEQ ID NO: 76] — lower, 4
- WEKYCVLEI (Influenza Virus) [SEQ ID NO: 202] — lower, 5
- YEAIEECLI (Influenza Virus) [SEQ ID NO: 205] — lower, 4
